Data on 59 compounds can be found in patent publication US20230295130A1, “COMPOUND USEFUL AS CDK7 KINASE INHIBITOR AND USE THEREOF” (TYK MEDICINES, INC., priority 2020, published 2023).

A value given as a limit tells only on which side of the number the result lay.

This test addresses CDK7/Cyclin H/MAT1 kinase (Homo sapiens (Human), UniProt P50613). Briefly: Enzyme activity test, mobility shift assay (Table 1). Type of test: biochemical. The note with it: 2 mM ATP; pre-incubated 0 and 60 minutes. Here is the method:
IC50 values of the compounds for CDK7 kinase were detected in Wuxi Biortus Biosciences Co. Ltd.
The compound powder was dissolved in 100% DMSO to prepare a 10 mM storage solution. The storage solution was further diluted to 0.5 mM as the initial concentration, and continuously diluted 3 times to obtain 10 compound solutions with different concentrations. The compound and enzyme were pre-incubated for 0 minutes and 60 minutes, respectively, using duplicate detection.
was used as a positive control, and Mobility shift assay method was used to detect CDK kinase (such as CDK7, CDK9, CDK12 and CDK2) activity of the compounds.

Chain of CDK7/Cyclin H/MAT1 kinase (P50613 whole entry): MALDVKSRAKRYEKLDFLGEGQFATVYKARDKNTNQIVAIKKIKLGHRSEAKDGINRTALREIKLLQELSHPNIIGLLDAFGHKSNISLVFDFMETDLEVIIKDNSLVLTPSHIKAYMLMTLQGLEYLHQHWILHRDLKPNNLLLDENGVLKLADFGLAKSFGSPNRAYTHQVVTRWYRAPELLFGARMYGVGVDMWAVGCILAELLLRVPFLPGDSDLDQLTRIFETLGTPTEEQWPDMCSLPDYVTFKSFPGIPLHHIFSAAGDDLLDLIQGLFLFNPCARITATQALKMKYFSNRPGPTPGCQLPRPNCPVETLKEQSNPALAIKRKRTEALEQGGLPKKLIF
Chain of CDK7/Cyclin H/MAT1 kinase (P51946 whole entry partner): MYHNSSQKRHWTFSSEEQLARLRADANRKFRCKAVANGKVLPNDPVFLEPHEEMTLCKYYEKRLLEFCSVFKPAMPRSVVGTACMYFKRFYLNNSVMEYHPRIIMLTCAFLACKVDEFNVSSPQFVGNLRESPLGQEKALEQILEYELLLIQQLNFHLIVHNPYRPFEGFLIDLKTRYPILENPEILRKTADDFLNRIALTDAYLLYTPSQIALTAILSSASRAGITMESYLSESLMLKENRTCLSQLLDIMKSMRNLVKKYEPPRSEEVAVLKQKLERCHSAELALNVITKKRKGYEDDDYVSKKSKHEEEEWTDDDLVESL
Chain of CDK7/Cyclin H/MAT1 kinase (P51948 whole entry partner): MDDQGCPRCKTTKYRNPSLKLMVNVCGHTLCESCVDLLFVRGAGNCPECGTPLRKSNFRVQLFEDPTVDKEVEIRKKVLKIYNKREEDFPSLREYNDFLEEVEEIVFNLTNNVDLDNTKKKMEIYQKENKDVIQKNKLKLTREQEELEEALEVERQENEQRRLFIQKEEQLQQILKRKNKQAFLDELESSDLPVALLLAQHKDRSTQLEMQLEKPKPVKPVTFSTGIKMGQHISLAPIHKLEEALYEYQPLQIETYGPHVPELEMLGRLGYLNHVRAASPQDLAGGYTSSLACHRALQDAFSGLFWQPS

Usually IC50 stands for the concentration at which inhibition is half-maximal. Regarding `COC(=O)Nc1ccc2c(-c3nc(N[C@H]4CCC[C@H](O)C4)ncc3C(F)(F)F)c[nH]c2c1Br` [Compound T-50], the IC50 was > 0.5 µM. Under `COC(=O)N(C)c1ccc2c(-c3nc(N[C@H]4CCC(C)(C)NC4)ncc3C(F)(F)F)c[nH]c2c1P(C)(C)=O` [Compound T-103] stands < 0.05 µM. Under `COC(=O)Nc1ccc2c(-c3nc(N[C@H]4CCC[C@H](O)C4)ncc3C(F)(F)F)c[nH]c2c1Br` [Example T-30] stands > 0.5 µM; under `CN(C)C(=O)Oc1ccc2c(-c3nc(N[C@H]4CCC(C)(C)NC4)ncc3C(F)(F)F)c[nH]c2c1` [Example T-32], 0.05 to 0.5 µM. The result for `CN(C)C(=O)n1cc(-c2nc(N[C@H]3CCC(C)(C)NC3)ncc2C(F)(F)F)c2ccc(O)cc21` [Example T-33] reads 0.05 to 0.5 µM; that for `COC(=O)Nc1ccc2c(-c3nc(N[C@H]4CCC5(CC5)NC4)ncc3C(F)(F)F)c[nH]c2c1OC` [Example T-38], < 0.05 µM; that for `COC(=O)Nc1ccc2c(-c3nc(N[C@H]4CCNC4)ncc3C(F)(F)F)c[nH]c2c1Br` [Example T-39], 0.05 to 0.5 µM. Take `COC(=O)Nc1ccc2c(-c3nc(N[C@H]4CCCNC4)ncc3C(F)(F)F)cn(C)c2c1Br` [Example T-40]: the IC50 lay within 0.05 to 0.5 µM. The result for `COC(=O)N(C)c1ccc2c(-c3nc(N[C@H]4CCCNC4)ncc3C(F)(F)F)cn(C)c2c1Br` [Example T-41] reads 0.05 to 0.5 µM; that for `CCCOC(=O)Nc1ccc2c(-c3nc(N[C@H]4CCCNC4)ncc3C(F)(F)F)c[nH]c2c1Br` [Example T-45], 0.05 to 0.5 µM; that for `O=C1OCCN1c1ccc2c(-c3nc(N[C@H]4CCNC4)ncc3C(F)(F)F)c[nH]c2c1Br` [Example T-46], 0.05 to 0.5 µM. Under `O=C1CCCN1c1ccc2c(-c3nc(N[C@H]4CCNC4)ncc3C(F)(F)F)c[nH]c2c1Br` [Example T-47] stands 0.05 to 0.5 µM; under `O=C1OCCN1c1ccc2c(-c3nc(N[C@H]4CCCNC4)ncc3C(F)(F)F)c[nH]c2c1` [Example T-49], < 0.05 µM. The result for `COC(=O)Nc1ccc2c(-c3nc(N[C@H]4CC[C@@H](N)C4)ncc3C(F)(F)F)c[nH]c2c1Br` [Example T-53] reads > 0.5 µM; that for `COC(=O)Nc1ccc2c(-c3nc(N[C@H]4CC[C@H](N)C4)ncc3C(F)(F)F)c[nH]c2c1Br` [Example T-54], 0.05 to 0.5 µM; that for `COC(=O)Nc1ccc2c(-c3nc(N[C@@H]4CC[C@H](N)C4)ncc3C(F)(F)F)c[nH]c2c1Br` [Example T-55], > 0.5 µM.

Regarding `COC(=O)Nc1ccc2c(-c3nc(N[C@@H]4CC[C@@H](N)C4)ncc3C(F)(F)F)c[nH]c2c1Br` [Example T-56], the IC50 is 0.05 to 0.5 µM.

Turning to `COC(=O)Nc1ccc2c(-c3nc(N[C@@H]4CCC[C@H]4N)ncc3C(F)(F)F)c[nH]c2c1Br` [Example T-57], the IC50 lay in the range of 0.05 to 0.5 µM. As to `COC(=O)Nc1ccc2c(-c3nc(N[C@@H]4CCC[C@@H]4N)ncc3C(F)(F)F)c[nH]c2c1Br` [Example T-58], the IC50 lay within 0.05 to 0.5 µM. The result for `COC(=O)Nc1ccc2c(-c3nc(N[C@H]4CCC[C@H]4N)ncc3C(F)(F)F)c[nH]c2c1Br` [Example T-59] reads 0.05 to 0.5 µM. Under `COC(=O)Nc1ccc2c(-c3nc(N[C@@H]4CCNC4)ncc3C(F)(F)F)c[nH]c2c1Br` [Example T-61] stands 0.05 to 0.5 µM; under `COC(=O)Nc1ccc2c(-c3nc(N[C@H]4CCCNC4)ncc3Cl)c[nH]c2c1Br` [Example T-71], < 0.05 µM.

As to `COC(=O)Nc1ccc2c(-c3nc(N[C@H]4CCC(C)(C)NC4)ncc3Cl)c[nH]c2c1Br` [Example T-72], the IC50 was < 0.05 µM. The result for `COC(=O)Nc1ccc2c(-c3nc(N[C@H]4CCCNC4)ncc3C)c[nH]c2c1Br` [Example T-76] reads < 0.05 µM.

For `CCc1cnc(N[C@H]2CCCNC2)nc1-c1c[nH]c2c(Br)c(NC(=O)OC)ccc12` [Example T-77], the IC50 is < 0.05 µM. Under `COC(=O)Nc1ccc2c(-c3nc(N[C@H]4CCCNC4)ncc3C(C)C)c[nH]c2c1Br` [Example T-78] stands 0.05 to 0.5 µM. As to `COC(=O)Nc1ccc2c(-c3nc(N[C@H]4CCCNC4)ncc3C(F)(F)F)c[nH]c2c1C1CCOC1` (some centres unmarked) [Example T-83], the IC50 was < 0.05 µM. The result for `COC(=O)Nc1ccc2c(-c3nc(N[C@H]4CCC(C)(C)NC4)ncc3Cl)c[nH]c2c1C(F)(F)F` [Example T-87] reads < 0.05 µM. As for `COC(=O)Nc1ccc2c(-c3nc(N[C@H]4CCC(C)(C)NC4)ncc3C(F)(F)F)c[nH]c2c1SC(C)C` [Example T-89], the IC50 is < 0.05 µM. The result for `C#Cc1c(NC(=O)OC)ccc2c(-c3nc(N[C@H]4CCC(C)(C)NC4)ncc3C(F)(F)F)c[nH]c12` [Example T-90] reads < 0.05 µM.

In the case of `COC(=O)Nc1ccc2c(-c3nc(N[C@H]4CCC(C)(C)NC4)ncc3C(F)(F)F)c[nH]c2c1OC1CCCC1` [Example T-92], the IC50 lay within 0.05 to 0.5 µM.

For the compound `COC(=O)Nc1ccc2c(-c3nc(N[C@H]4CCC(C)(C)NC4)ncc3C(F)(F)F)c[nH]c2c1OC1CCC1` [Example T-93], the IC50 was < 0.05 µM.

With `COC(=O)Nc1ccc2c(-c3nc(N[C@H]4CCC(C)(C)NC4)ncc3C(F)(F)F)c[nH]c2c1OC(C)C` [Example T-94], the IC50 is < 0.05 µM. As for `CCOc1c(NC(=O)OC)ccc2c(-c3nc(N[C@H]4CCC(C)(C)NC4)ncc3C(F)(F)F)c[nH]c12` [Example T-95], the IC50 was < 0.05 µM. The result for `COC(=O)Nc1ccc2c(-c3nc(N[C@H]4CCC(C)(C)NC4)ncc3C(F)(F)F)c[nH]c2c1CC(F)(F)F` [Example T-97] reads < 0.05 µM; that for `COC(=O)Nc1ccc2c(-c3nc(N[C@@H]4CNCC(C)(C)C4)ncc3C(F)(F)F)c[nH]c2c1C(F)(F)F` [Example T-101], < 0.05 µM; that for `COC(=O)Nc1ccc2c(-c3nc(N[C@H]4CCCN(C)C4)ncc3C(F)(F)F)c[nH]c2c1C(F)(F)F` [Example T-111], < 0.05 µM. Under `CCN[C@H]1CCC[C@@H]1Nc1ncc(C(F)(F)F)c(-c2c[nH]c3c(Br)c(NC(=O)OC)ccc23)n1` [Example T-115] stands < 0.05 µM; under `CCN[C@H]1CCC[C@@H]1Nc1ncc(C(F)(F)F)c(-c2c[nH]c3c(C(F)(F)F)c(NC(=O)OC)ccc23)n1` [Example T-117], < 0.05 µM; under `COC(=O)Nc1ccc2c(-c3nc(N[C@H]4CCCNC4)ncc3C(F)(F)F)c[nH]c2c1OC(F)F` [Example T-121], < 0.05 µM.

With `COC(=O)Nc1ccc2c(-c3nc(N[C@H]4CCCNC4)ncc3Cl)c[nH]c2c1OC(F)(F)F` [Example T-123], the IC50 was < 0.05 µM.

Turning to `COC(=O)Nc1ccc2c(-c3nc(NC4CNC5CC5C4)ncc3C(F)(F)F)c[nH]c2c1Cl` (centres unmarked) [Example T-126], the IC50 was < 0.05 µM. The result for `COC(=O)Nc1ccc2c(-c3nc(N[C@H]4CC=C(C)NC4)ncc3C(F)(F)F)c[nH]c2c1OC` [Example T-133] reads 0.05 to 0.5 µM; that for `COC(=O)Nc1ccc2c(-c3nc(N[C@H]4CC[C@H](C)NC4)ncc3C(F)(F)F)c[nH]c2c1OC` [Example T-141], 0.05 to 0.5 µM; that for `COC(=O)Nc1ccc2c(-c3nc(N[C@H]4CC[C@H](C)NC4)ncc3C(F)(F)F)c[nH]c2c1Br` [Example T-144], 0.05 to 0.5 µM.

For `COC(=O)Nc1ccc2c(-c3nc(N[C@H]4CCC(C)NC4)ncc3C(F)(F)F)c[nH]c2c1Cl` (some centres unmarked) [Example T-145], the IC50 fell in the range of 0.05 to 0.5 µM. With `COC(=O)Nc1ccc2c(-c3nc(N[C@H]4CC[C@H](C)NC4)ncc3C(F)(F)F)c[nH]c2c1Cl` [Example T-147], the IC50 is 0.05 to 0.5 µM. Take `COC(=O)Nc1ccc2c(-c3nc(N[C@H]4CC=C(C)NC4)ncc3C(F)(F)F)c[nH]c2c1Cl` [Example T-148]: the IC50 was in the range of 0.05 to 0.5 µM. Consider `COC(=O)Nc1ccc2c(-c3nc(N[C@H]4CC[C@H](C)NC4)ncc3C(F)(F)F)c[nH]c2c1OCC(F)(F)F` [Example T-152], for which the IC50 was 0.05 to 0.5 µM. For the compound `COC(=O)Nc1ccc2c(-c3nc(N[C@H]4CCCNC4)ncc3C(F)(F)F)c[nH]c2c1C(C)(C)O` [Example T-157], the IC50 was < 0.05 µM.

For the compound `CC(=O)Nc1ccc2c(-c3nc(N[C@H]4CCCNC4)ncc3C(F)(F)F)c[nH]c2c1C(C)(C)O` [Example T-158], the IC50 was < 0.05 µM.

As for `COC(=O)N(C)c1ccc2c(-c3nc(N[C@H]4CCCNC4)ncc3C(F)(F)F)c[nH]c2c1OC` [Example T-166], the IC50 is < 0.05 µM. Consider `COC(=O)Nc1ccc2c(-c3nc(N[C@H]4CCCN(C)C4)ncc3C(F)(F)F)c[nH]c2c1OC` [Example T-167], for which the IC50 was < 0.05 µM. `COC(=O)N(C)c1ccc2c(-c3nc(N[C@H]4CCCNC4)ncc3C(F)(F)F)c[nH]c2c1C(C)(F)F` [Example T-170]: the IC50 is < 0.05 µM. Under `COC(=O)Nc1ccc2c(-c3nc(N[C@H]4CCCN(C)C4)ncc3C(F)(F)F)c[nH]c2c1C(C)(F)F` [Example T-171] stands < 0.05 µM; under `COC(=O)Nc1ccc2c(-c3nc(N[C@H]4CCCN(C)C4)ncc3C(F)(F)F)c[nH]c2c1C(F)(F)F` [Example T-172], < 0.05 µM. On to `COC(=O)Nc1ccc2c(-c3nc(N[C@H]4CCCN(C)C4)ncc3C(F)(F)F)c[nH]c2c1OC(F)F` [Example T-173], for which the concentration for half-maximal inhibition (IC50) is < 0.05 µM. In the case of `COC(=O)Nc1ccc2c(-c3nc(N[C@H]4CCCN(C)C4)ncc3C(F)(F)F)c[nH]c2c1C1CC1` [Example T-174], the IC50 is < 0.05 µM. The result for `COC(=O)N(C)c1ccc2c(-c3nc(N[C@H]4CCCNC4)ncc3C(F)(F)F)c[nH]c2c1C1CC1` [Example T-175] reads < 0.05 µM.
